Assay results from article PMC9967152 (International Journal of Molecular Sciences, 2023).
Entries after “also recorded” stand apart in the source; their conditions may differ. Where a SMILES comes first, the peptide text is derived from it. [ ]: non-standard residue; d: D form. The star is where a group is joined. Daunorubicin(13-NOCH2CO) = COc1cccc2c1C(=O)c1c(O)c3c(c(O)c1C2=O)C[C@@](O)(C(C)=NOCC(=O)*)C[C@@H]3O[C@H]1C[C@H](N)[C@H](O)[C@H](C)O1; Sta = CC(C)C[C@H](N)[C@@H](O)CC(=O)O; Nle = CCCC[C@H](N)C(=O)O; Aib = CC(C)(N)C(=O)O; βAla = NCCC(=O)O

Legend:
[1] = tested on: PC-3 human prostate adenocarcinoma cells; test: MTT assay, in vitro cytostatic effect; assay type: cell-based; details: 24 h treatment at 3.125–25 µM, then cultured up to 72 h, mean ± SD, n = 2 independent experiments with four parallels
Description: (§1) Cells were distributed into 96-well tissue culture plates with an initial cell number of 5.0 × 10^3 per well. After 24 h incubation at 37 °C, the cells were treated with the compounds in 200 µL final volume containing 1.0 v/v% DMSO and 10% H2O. […] After incubation, the cells were washed twice with a serum-free medium. To determine the in vitro cytostatic effect, the cells were further cultured up to 72 h in a 10% serum-containing medium. A solution of 3-(4,5-dimethylthiazol-2-yl)-2,5-diphenyltetrazolium bromide and MTT-solution, (45 µL, 2 mg/mL, final concentration: […]) were added to each well. The respiratory chain [67] and other electron transport systems reduce MTT, and thereby form non-water-soluble violet formazan crystals within the cell. […] After 3 h of incubation, the cells were centrifuged for 5 min at 1000 g and the supernatant was removed. The obtained formazan crystals were dissolved in DMSO (100 μL) and the optical density (OD) of the samples was measured at λ = 540 and 620 nm, respectively, using ELISA Reader (iEMS Reader, Labsystems, Finland). OD620 values were subtracted from OD540 values. The percentage of cytostasis was calculated by using the following equation:Cytostatic effect (%) = [1 − (ODtreated/ODcontrol)] × 100(1)
(§2) Values of ODtreated and ODcontrol correspond to the optical densities of the treated and the control cells, respectively. In each case, two independent experiments were carried out with four parallel measurements. The 50% inhibitory concentration (IC50) values were determined from the dose–response curves. The curves were defined using Microcal™ Origin 2018 software: cytostasis was plotted as a function of concentration, fitted to a sigmoidal curve, and based on this curve, the half-maximal inhibitory concentration (IC50) value was determined. IC50 represents the concentration of a compound that is required for 50% inhibition in vitro and is expressed in micromolar units.

[2] = tested on: MDA-MB-453 human metastatic epithelial breast carcinoma cells; test: MTT assay, in vitro cytostatic effect; assay type: cell-based; details: 24 h treatment at 3.125–25 µM, then cultured up to 72 h, mean ± SD, n = 2 independent experiments with four parallels
Description: as §1, §2

[3] = tested on: MDA-MB-231 human breast adenocarcinoma cells; test: MTT assay, in vitro cytostatic effect; assay type: cell-based; details: 24 h treatment at 3.125–25 µM, then cultured up to 72 h, mean ± SD, n = 2 independent experiments with four parallels
Description: as §1, §2

[4] = Stability in incomplete (serum-free) DMEM; assay type: in vitro ADME; details: 25 µM, 37 °C, 600 rpm, LC–MS, n = 2
Description: The conjugates were incubated in incomplete DMEM for 3 h (similarly to the internalisation studies) or in 2.5% FBS containing DMEM for 24 h (conditions for the MTT assay). […] No significant loss of L1 and L5 (<20%) or L6 (<30%) was observed after 3 h (see Supplementary Materials, Figure S17).
DMSO stock solutions of the conjugates (2.5 mM) were diluted in DMEM free from or containing 2.5% FBS, to a final concentration of 25 μM. The mixture was incubated and stirred at 37 °C, 600 rpm, and 30 µL aliquots were collected after 0 min, 0.5, 1, 2, 4, 8 and 24 h, in duplicates. Then, to each sample, 90 µL of 0.1% formic acid containing MeCN was added and the samples were frozen at −25 °C for ≥30 min to aid protein precipitation. Large FBS components were removed by centrifugation (15 min, 5000 g, 4 °C). Aliquots of 50 µL supernatant were diluted with an equal volume of ddH2O + 0.1% formic acid and analysed by LC–MS. Control measurements were performed in the same manner (25 μM bioconjugate in 100% ddH2O).

[5] = tested on: PC-3 human prostatic adenocarcinoma xenograft in NOD-SCID mice; test: In vivo tumour growth inhibition, subcutaneous PC-3 xenograft; parameters: species or system mouse; details: 10 mg/kg on Dau content i.p. every 5th day, n = 8
Description: The testing of the antitumour conjugates was carried out in a murine xenograft model. It was established by inoculating subcutaneously 100 µL of cell suspension of PC-3 prostate cancer cells with a concentration of 2 × 10^7 cells/mL.
Once the tumour volume reached 60 mm^3, mice were randomised and assigned to different groups for each treatment, respectively 0.9% saline as control, free daunorubicin, L5, and L6. Each group consisted of eight mice. Peptide–drug conjugates were injected intraperitoneally every 5th day, five times in total (daunorubicin dosage of 10 mg/kg for each treatment). In the case of free daunorubicin, two treatments were administered at the same time points as the first two treatments with conjugates, with a dosage of 1 mg/kg, the maximum tolerated dose (MTD). Weight and tumour size of mice were monitored throughout the whole experiment, two times per week. On day 33, mice were euthanized, and primary tumour, heart, lung, liver and spleen were harvested and stored in 4% formalin (Molar Chemicals, Halásztelek, Hungary). After 2–3 days of incubation in formalin, tissue samples were examined macroscopically. Organs and primary tumours from the different treatment groups were weighed and inspected under a stereomicroscope to see any occurrent changes in morphology compared to the controls.

[6] = Stability in mouse plasma; assay type: in vitro ADME; details: 37 °C, HPLC-MS; for Time after which release of the toxic metabolite Dau=Aoa-Leu-OH starts: 10 µM, for L5 and L6 in a considerably low amount; for remaining at 24 h, 10 μM: 600 rpm, n = 3, read-out: Intact conjugate after one day (24 h)
Description: Due to their low IC50 values and internalisation on the tested cell lines, conjugates L1, L5 and L6 were chosen for investigation of their stability in mouse plasma, as potential candidates for in vivo studies. They were incubated at a concentration of 10 µM, with mouse plasma for 24 h at 37 °C. Samples were collected at 0 h, 30 min, 1 h, 2 h, 4 h, 8 h and 24 h and analysed by HPLC-MS. […] Furthermore, after 2 h, L1 starts to release the toxic metabolite Dau=Aoa-Leu-OH, whereas this happens only after 24 h for L5 and L6, in a considerably low amount (see Supplementary Materials, Figures S18–S20).
The conjugates were dissolved in ddH2O containing 10% DMSO (stock solution: 100 μM) and diluted with mouse plasma to a final concentration of 10 μM. The mixture was incubated and stirred at 37 °C, 600 rpm, and 30 µL aliquots were collected after 0 min, 0.5, 1, 2, 4, 8 and 24 h, in triplicates. Then, to each plasma sample, 90 µL of 0.1% formic acid containing MeCN was added, and the samples were frozen at −25 °C for ≥30 min to aid protein precipitation. Large plasma proteins were removed by centrifugation (15 min, 5000× g, 4 °C). Aliquots of 50 µL supernatant were diluted with an equal volume of ddH2O + 0.1% formic acid and analysed by LC–MS. Control measurements were performed in the same manner (10 μM bioconjugate in 100% ddH2O).

[7] = tested on: healthy NOD-SCID mice; test: In vivo chronic toxicity study in healthy mice; parameters: species or system mouse; details: 20 mg/kg calculated on Dau content, every 5th day, four treatments, n = 3
Description: Based on the stability assay performed in murine plasma, we decided to investigate L5 and L6 in vivo. To determine the dosage for the tumour growth inhibition experiment, we performed a chronic toxicity study using healthy mice. PDCs were administered every 5th day in three different doses calculated on the Dau content: 5 mg/kg, 10 mg/kg, and 20 mg/kg (Figure 4A). […] When 10 mg/kg drug was applied, the fitness of mice was not affected more than that of mice that received 5 mg/kg.
The toxicity experiments were done in healthy NOD-SCID mice. Treatments were administered every 5th day. Three different concentrations were tested, 5 mg/kg, 10 mg/kg and 20 mg/kg, respectively. Each group consisted of three mice. Mouse weight was monitored five times per week.

[8] = incomplete DMEM; details: 37 °C, up to 3 h
[9] = rat liver lysosomal homogenate; details: male Wistar rats, 37 °C, up to 72 h
[10] = mouse plasma; details: 37 °C, up to 24 h

## CCCC[C@H](NC(=O)C(C)(C)NC(=O)[C@H](Cc1c[nH]cn1)NC(=O)CCNC(=O)[C@@H](NC(=O)[C@H](C)NC(=O)[C@H](Cc1c[nH]c2ccccc12)NC(=O)[C@H](CCC(N)=O)NC(=O)[C@@H](Cc1ccccc1)NC(=O)[C@H](Cc1ccc(O)cc1)NC(=O)[C@H](CCCNC(=N)N)NC(=O)[C@H](CCCNC(=N)N)NC(=O)[C@H](CC(C)C)NC(=O)CON=C(C)[C@]1(O)Cc2c(O)c3c(c(O)c2[C@@H](O[C@H]2C[C@H](N)[C@H](O)[C@H](C)O2)C1)C(=O)c1c(OC)cccc1C3=O)C(C)C)C(N)=O ({Daunorubicin(13-NOCH2CO)}-LRRY[dF]QWAV[βAla]H[Aib][Nle]-NH2)
other
  time to release of active metabolite Dau=Aoa-Leu-OH: < 30 min

## CC(=O)N[C@H](Cc1ccccc1)C(=O)N[C@@H](CCC(N)=O)C(=O)N[C@@H](Cc1c[nH]c2ccccc12)C(=O)N[C@@H](C)C(=O)N[C@H](C(=O)NCC(=O)N[C@@H](Cc1c[nH]cn1)C(=O)N[C@@H](CC(C)C)[C@@H](O)CC(=O)N[C@@H](CC(C)C)C(N)=O)C(C)C [FP1]
[1]
  IC50: > 100 µM
[2]
  IC50: > 100 µM
[3]
  IC50: > 100 µM

## CCCC[C@H](NC(=O)C[C@H](O)[C@H](CC(C)C)NC(=O)[C@H](Cc1c[nH]cn1)NC(=O)CCNC(=O)[C@@H](NC(=O)[C@H](C)NC(=O)[C@H](Cc1c[nH]c2ccccc12)NC(=O)[C@H](CCC(N)=O)NC(=O)[C@@H](Cc1ccccc1)NC(C)=O)C(C)C)C(N)=O [FP2] (Ac-[dF]QWAV[βAla]H[Sta][Nle]-NH2)
[1]
  IC50: > 100 µM
[2]
  IC50: > 100 µM
[3]
  IC50: > 100 µM

## COc1cccc2c1C(=O)c1c(O)c3c(c(O)c1C2=O)C[C@@](O)(C(C)=NOCC(=O)N[C@@H](CC(C)C)C(=O)N[C@@H](CCCNC(=N)N)C(=O)N[C@@H](CCCNC(=N)N)C(=O)N[C@@H](Cc1ccc(O)cc1)C(=O)N[C@H](Cc1ccccc1)C(=O)N[C@@H](CCC(N)=O)C(=O)N[C@@H](Cc1c[nH]c2ccccc12)C(=O)N[C@@H](C)C(=O)N[C@H](C(=O)NCC(=O)N[C@@H](Cc1c[nH]cn1)C(=O)N[C@@H](CC(C)C)[C@@H](O)CC(=O)N[C@@H](CC(C)C)C(N)=O)C(C)C)C[C@@H]3O[C@H]1C[C@H](N)[C@H](O)[C@H](C)O1 [L5, (Dau=Aoa)-LRRY-BBN[D-Phe6, Sta13, Leu14]] ({Daunorubicin(13-NOCH2CO)}-LRRY[dF]QWAVGH[Sta]L-NH2)
[4]
  Loss of conjugate after 3 h: < 20%
[5]
  Toxicity during the tumour growth inhibition experiment: lower toxicity compared to free daunorubicin
[6]
  Time after which release of the toxic metabolite Dau=Aoa-Leu-OH starts: 24 h
  remaining at 24 h, 10 μM: > 80%
[7]
  Decrease in mouse weight: 10–15%
other
  time to release of active metabolite Dau=Aoa-Leu-OH: < 30 min

## CCCC[C@H](NC(=O)C[C@H](O)[C@H](CC(C)C)NC(=O)[C@H](Cc1c[nH]cn1)NC(=O)CCNC(=O)[C@@H](NC(=O)[C@H](C)NC(=O)[C@H](Cc1c[nH]c2ccccc12)NC(=O)[C@H](CCC(N)=O)NC(=O)[C@@H](Cc1ccccc1)NC(=O)[C@H](Cc1ccc(O)cc1)NC(=O)[C@H](CCCNC(=N)N)NC(=O)[C@H](CCCNC(=N)N)NC(=O)[C@H](CC(C)C)NC(=O)CON=C(C)[C@]1(O)Cc2c(O)c3c(c(O)c2[C@@H](O[C@H]2C[C@H](N)[C@H](O)[C@H](C)O2)C1)C(=O)c1c(OC)cccc1C3=O)C(C)C)C(N)=O [L6, (Dau=Aoa)-LRRY-BBN[D-Phe6, β-Ala11, Sta13, Nle14]] ({Daunorubicin(13-NOCH2CO)}-LRRY[dF]QWAV[βAla]H[Sta][Nle]-NH2)
[4]
  Loss of conjugate after 3 h: < 30%
[5]
  Toxicity during the tumour growth inhibition experiment: lower toxicity compared to free daunorubicin
[6]
  Time after which release of the toxic metabolite Dau=Aoa-Leu-OH starts: 24 h
  remaining at 24 h, 10 μM: > 80%
[7]
  Decrease in mouse weight: 10–15%

## Dau=Aoa-LRRY-QWAVGHL-Nle
[8]
  not cleaved: highly stable for 1.5 h; no significant loss (<20%) after 3 h
[9]
  cleaved bond: Leu-Arg, 15 min
  fragment found: Dau=Aoa-LR-OH; also recorded: Dau=Aoa-LRR-OH
[10]
  fragment found: Dau=Aoa-Leu-OH (M1), minor, 2 h

## Dau=Aoa-LRRY-fQWAV-β-Ala-H-Aib-Nle
[9]
  cleaved bond: Leu-Arg, 15 min
  fragment found: Dau=Aoa-LR-OH; also recorded: H2N-RY-fQWAV-β-Ala-H-Aib-Nle-NH2; also recorded: H2N-Y-fQWAV-β-Ala-H-Aib-Nle-NH2; also recorded: H2N-RY-fQW-OH

## Dau=Aoa-LRRY-fQWAV-β-Ala-H-Sta-Nle
[8]
  not cleaved: highly stable for 1.5 h; no significant loss (<30%) after 3 h
[9]
  cleaved bond: Leu-Arg, 15 min
  fragment found: Dau=Aoa-LR-OH; also recorded: H2N-RY-fQWAV-βAla-H-Sta-Nle-NH2; also recorded: H2N-Y-fQWAV-βAla-H-Sta-Nle-NH2; also recorded: H2N-RY-fQW-OH
[10]
  fragment found: Dau=Aoa-Leu-OH (M1), minor, 24 h

## Dau=Aoa-LRRY-fQWAVGH-Sta-L
[8]
  not cleaved: highly stable for 1.5 h; no significant loss (<20%) after 3 h
[9]
  cleaved bond: Leu-Arg, 15 min
  fragment found: Dau=Aoa-LR-OH; also recorded: H2N-RY-fQWAVGH-Sta-L-NH2; also recorded: H2N-VGH-Sta-L-NH2; also recorded: H2N-GH-Sta-L-NH2; also recorded: H2N-RY-fQW-OH; also recorded: H2N-RYfQ-OH
[10]
  fragment found: Dau=Aoa-Leu-OH (M1), minor, 24 h
